{"source": "patent US4156017A", "about": "“Pesticides” (Schering Aktiengesellschaft, priority 1977, dated 1979)", "key": {"[1]": {"tested_on": "cabbage moth eggs", "assay": "prevention of hatching of cabbage moth eggs (immersion, evaluation four days after treatment)", "format": "in vivo", "conditions": "Mamestra brassicae, 96 h; for inhibition at 1 % / inhibition at 0.1 %: read-out: prevention of hatching", "protocol": "(§1) The compounds to be used according to the invention were used as aqueous solutions of the salts or as aqueous emulsions of the bases formulated as emulsion concentrates at the desired concentration. The same procedure was followed with the comparison agents trans-2-phenylcyclopropyl aminosulfate and 1-isonicotinyl-2-isopropyl hydrazine phosphate; in the case of isonicotinic acid-2-[2-(benzylcarbamoyl)-ethyl]-hydrazide, the compound was dissolved in acetone and diluted to the desired concentration with water.\nThe criterion for the evaluation of action was the percentual prevention of hatching in comparison with untreated eggs."}, "[2]": {"tested_on": "cabbage moth (Plutella maculipennis)", "assay": "feed damage on sprayed potted mustard seedlings bearing eggs of the cabbage moth (Plutella maculipennis)", "format": "in vivo", "conditions": "vs untreated plants, 7 days", "excerpt": "The compounds to be used according to the invention were used as aqueous solutions of the salts or as aqueous emulsions of the bases formulated as emulsion concentrates at the desired concentration. The same procedure was followed for the comparison agents trans-2-phenylcyclopropyl aminosulfate and 1-isonicotinyl-2-isopropyl hydrazine phosphate.\nAfter the treatment the pots were set up in aerated glass cylinders for seven days.\nThe criterion for evaluation of the action was feed damage on the treated plants in comparison with the feed damage on untreated plants."}, "[3]": {"tested_on": "monoamino-oxidase", "conditions": "generally known; cited from earlier work"}, "[4]": {"tested_on": "Egyptian cotton moth eggs", "assay": "prevention of hatching of Egyptian cotton moth eggs (immersion, evaluation four days after treatment)", "format": "in vivo, Spodoptera littoratis (Egyptian cotton moth)", "conditions": "96 h", "protocol": "as §1, with “were” for “were used as”, “or” for “or as”, “baes” for “bases”, “acid-2-[2-(benzylcarbamoyl)-ethyl]hydrazide,” for “acid-2-[2-(benzylcarbamoyl)-ethyl]-hydrazide,”, “diluted with water” for “diluted”, “concentration.” for “concentration with water.”\nThe criterion for evaluation of the action was the percentual prevention of batching in comparison with untreated eggs."}, "[5]": {"assay": "acute oral toxicity, mouse", "conditions": "in vivo, mouse p.o."}, "[6]": {"conditions": "read-out: prevention of batching"}, "[7]": {"conditions": "substance concentration 1.0%, vs untreated eggs, 4 days"}, "[8]": {"conditions": "substance concentration 1.0 (head \"(5)\"), vs untreated eggs, 4 days, read-out: prevention of hatching"}, "[9]": {"conditions": "substance concentration 0.1 (head \"(5)\"), vs untreated eggs, 4 days, read-out: prevention of hatching"}, "[10]": {"conditions": "substance concentration 0.04 (head \"(5)\"), vs untreated eggs, 4 days, read-out: prevention of hatching"}, "[11]": {"conditions": "substance concentration 0.1%, vs untreated eggs, 4 days"}}, "note": "Where two headings read alike, the source gives them in different places."}
{"smiles": "N[C@@H]1C[C@H]1c1ccccc1.O=S(=O)(O)O", "note": "(relative stereo) [trans-2-Phenylcyclopropyl aminosulfate, trans-2-phenylcyclopropylamine sulfate, reference compound]", "values": [{"measurement": "inhibition at 1 %", "setting": "[1]", "result": 0, "unit": "%"}, {"measurement": "feed damage", "setting": "[2]; substance concentration 0.1%", "result": 100, "unit": "%"}, {"measurement": "inhibition of monoamino-oxidase", "setting": "[3]", "result": "inhibitors of monoamino-oxidase"}, {"measurement": "inhibition at 1 %", "setting": "[4]; [6]", "result": 0, "unit": "%"}]}
{"smiles": "CC(C)NNC(=O)c1ccncc1", "note": "[1-isonicotinyl-2-isopropylhydrazine phosphate, reference compound]", "values": [{"measurement": "inhibition at 1 %", "setting": "[1]; [7]", "result": 0, "unit": "%"}, {"measurement": "feed damage", "setting": "[2]; substance concentration 0.1%", "result": 100, "unit": "%"}, {"measurement": "inhibition of monoamino-oxidase", "setting": "[3]", "result": "inhibitors of monoamino-oxidase"}, {"measurement": "inhibition at 1 %", "setting": "[4]; [8]", "result": 0, "unit": "%"}]}
{"smiles": "C#CCN(C)Cc1ccc(Cl)cc1", "note": "[Compound 1, N-(4-chlorobenzyl)-N-methyl-2-propinylamine]", "values": [{"measurement": "inhibition at 0.06 %", "setting": "[1]; substance concentration 0.06%, vs untreated eggs, 4 days", "result": 100, "unit": "%"}, {"measurement": "feed damage", "setting": "[2]; substance concentration 0.05%", "result": 0, "unit": "%"}, {"measurement": "inhibition at 0.02 %", "setting": "[4]; substance concentration 0.02 (head \"(5)\"), vs untreated eggs, 4 days", "result": 100, "unit": "%"}]}
{"smiles": "C#CCN(C)Cc1ccc(Cl)cc1", "note": "[Compound 2, 4-Chlorobenzyl-methyl-2-propinyl ammonium chloride]", "values": [{"measurement": "inhibition at 0.1 %", "setting": "[4]; [9]", "result": 100, "unit": "%"}]}
{"smiles": "C#CCN(C)Cc1ccccc1", "note": "[Compound 3, N-Benzyl-N-methyl-2-propinylamine]", "values": [{"measurement": "inhibition at 0.1 %", "setting": "[1]", "result": 100, "unit": "%"}, {"measurement": "LD50", "setting": "[5]", "result": 700, "unit": "mg/kg"}, {"measurement": "feed damage", "setting": "[2]; substance concentration 0.05%", "result": 0, "unit": "%"}, {"measurement": "inhibition of monoamino-oxidase", "setting": "[3]", "result": "inhibitors of monoamino-oxidase"}, {"measurement": "inhibition at 0.04 %", "setting": "[4]; [6]", "result": 100, "unit": "%"}]}
{"smiles": "C#CCN(C)Cc1ccccc1Cl", "note": "[Compound 4, N-(2-chlorobenzyl)-N-methyl-2-propinylamine]", "values": [{"measurement": "LD50", "setting": "[5]", "result": 305, "unit": "mg/kg"}, {"measurement": "inhibition at 0.1 %", "setting": "[4]; [9]", "result": 100, "unit": "%"}]}
{"smiles": "C#CCN(C)Cc1cccc(Cl)c1", "note": "[Compound 5, N-(3-chlorobenzyl)-N-methyl-2-propinylamine]", "values": [{"measurement": "inhibition at 0.1 %", "setting": "[4]; [9]", "result": 100, "unit": "%"}]}
{"smiles": "C#CCN(C)Cc1ccc(Cl)c(Cl)c1", "note": "[Compound 6, N-(3,4-dichlorobenzyl)-N-methyl-2-propinylamine]", "values": [{"measurement": "inhibition at 0.04 %", "setting": "[4]; [10]", "result": 100, "unit": "%"}]}
{"smiles": "C#CCN(C)Cc1ccc(Cl)cc1Cl", "note": "[Compound 7, N-(2,4-dichlorobenzyl)-N-methyl-2-propinylamine]", "values": [{"measurement": "inhibition at 0.1 %", "setting": "[1]; [11]", "result": 100, "unit": "%"}, {"measurement": "inhibition at 0.04 %", "setting": "[4]; [10]", "result": 100, "unit": "%"}]}
{"smiles": "C#CCN(C)Cc1cccc(OC)c1", "note": "[Compound 8, N-(3-methoxybenzyl)-N-methyl-2-propinylamine]", "values": [{"measurement": "inhibition at 0.1 %", "setting": "[4]; [9]", "result": 100, "unit": "%"}]}
{"smiles": "C#CCN(C)Cc1ccccc1", "note": "[Compound 9, Benzyl-methyl-2-propinyl-ammonium-chloride]", "values": [{"measurement": "inhibition at 0.1 %", "setting": "[4]; [6]", "result": 100, "unit": "%"}]}
{"smiles": "C#CCN(C)Cc1ccccc1Cl", "note": "[Compound 10, 2-Chlorobenzyl-methyl-2-propinyl-ammonium chloride]", "values": [{"measurement": "inhibition at 0.1 %", "setting": "[1]; [11]", "result": 100, "unit": "%"}, {"measurement": "inhibition at 0.04 %", "setting": "[4]; [10]", "result": 80, "unit": "%"}]}
{"smiles": "C#CCN(C)Cc1ccc(Cl)cc1Cl", "note": "[Compound 12, 2,4-Dichlorobenzyl-methyl-2-propinyl-ammonium chloride]", "values": [{"measurement": "inhibition at 0.1 %", "setting": "[4]; [9]", "result": 100, "unit": "%"}]}
{"smiles": "C#CCN(C)Cc1cccc(OC)c1", "note": "[Compound 13, 3-Methoxybenzyl-methyl-2-propinyl-ammonium chloride]", "values": [{"measurement": "inhibition at 0.04 %", "setting": "[4]; [10]", "result": 70, "unit": "%"}]}
{"smiles": "C#CCN(C)Cc1ccc(Cl)c(Cl)c1", "note": "[Compound 14, 3,4-Dichlorobenzyl-methyl-2-propinyl-ammonium chloride]", "values": [{"measurement": "inhibition at 0.08 %", "setting": "[1]; substance concentration 0.08%, vs untreated eggs, 4 days", "result": 100, "unit": "%"}, {"measurement": "feed damage", "setting": "[2]; substance concentration 0.05%", "result": 0, "unit": "%"}]}
{"smiles": "O=C(CCNNC(=O)c1ccncc1)NCc1ccccc1", "note": "[Isonicotinic acid-2-[2-(benzylcarbamoyl)-ethyl]-hydrazide, reference compound]", "values": [{"measurement": "inhibition at 1 %", "setting": "[1]; [7]", "result": 0, "unit": "%"}, {"measurement": "inhibition of monoamino-oxidase", "setting": "[3]", "result": "inhibitors of monoamino-oxidase"}, {"measurement": "inhibition at 1 %", "setting": "[4]; [8]", "result": 0, "unit": "%"}]}
